# Reference: paper PMC10819071, “SG-ATT: A Sequence Graph Cross-Attention Representation Architecture for Molecular Property Prediction” (Molecules, 2024)
# System: HBV
# Test: in vitro validation of anti-HBV capacity (IC50)
# Format: cell-based
# Conditions: Hepatitis B virus, read-out: IC50, In Vitro Validation
# Description: (§1) Chronic hepatitis B caused by hepatitis B virus (HBV) is a kind of serious disease. HBV inhibitory drugs are developed from a variety of compounds, and to further explore whether anti-HBV compounds are potentially promising for research, it is necessary to validate their anti-HBV capacity (IC50) and HepG2 hepatocytotoxicity (CC50). We used compounds screened with the fields of target name and target tissue from the CHEMBL database as training data and set the HBV (IC50) concentration and hepatotoxicity concentration (CC50) thresholds at 20 μM (the smaller the IC50 value; the more […]) and 100 μM (higher CC50 concentration indicates lower toxicity), respectively, to convert the compound activity data against the target into binary data for prediction. To validate the reliability of the SG-ATT model, we also used in vitro validation to test the model on IC50 and CC50 to predict the properties of the compounds. Throughout the in vitro validation, we tested the activity data of 100 compounds for IC50 and CC50.
# (§2) We counted the model prediction results and listed the top 10 compounds ranked using μM prediction size. The first represents the largest μM, and the 10th represents the smallest μM.
row,Structure (SMILES),IC50
1,O=C(N[C@H](CO)Cc1ccccc1)/C(=C\c1ccccc1Br)NC(=O)c1ccccc1 [O=C(N[C@H](CO)CC1=CC=CC=C1)/C(NC(C2=CC=CC=C2)=O) =C\C3=CC=CC=C3Br],> 20 µM
2,O=C(N[C@H](CO)Cc1ccccc1)/C(=C\c1ccccc1Cl)NC(=O)c1ccccc1 [O=C(N[C@H](CO)CC1=CC=CC=C1)/C(NC(C2=CC=CC=C2)=O) =C\C3=CC=CC=C3Cl],> 20 µM
3,Cc1cccc(/C=C(/NC(=O)c2ccccc2)C(=O)N[C@H](CO)Cc2ccccc2)c1 [O=C(N[C@H](CO)CC1=CC=CC=C1)/C(NC(C2=CC=CC=C2) =O)=C\C3=CC=CC(C)=C3],> 20 µM
4,O=C(N[C@H](CO)Cc1ccccc1)/C(NC(=O)c1ccccc1)=C(/Br)c1ccccc1Cl [Br/C(C1=CC=CC=C1Cl)=C(NC(C2=CC=CC=C2)=O)/ C(N[C@@H](CC3=CC=CC=C3)CO)=O],1.88 µM
5,O=C(N[C@H](CO)Cc1ccccc1)/C(NC(=O)c1ccccc1)=C(/Br)c1ccc(Br)cc1 [Br/C(C1=CC=C(Br)C=C1)=C(NC(C2=CC=CC=C2)=O)/ C(N[C@@H](CC3=CC=CC=C3)CO)=O],4.45 µM
6,O=C(N[C@H](CO)Cc1ccccc1)/C(NC(=O)c1ccccc1)=C(/Br)c1ccccc1 [Br/C(C1=CC=CC=C1)=C(NC(C2=CC=CC=C2)=O)/ C(N[C@H](CO)CC3=CC=CC=C3)=O],3.86 µM

# Same assay, conditions: Hepatitis B virus; anti-HBV capacity; top 10 compounds ranked by SG-ATT prediction; classification threshold 20 μM; read-out: IC50, In Vitro Validation
row,IC50,Structure (SMILES)
1,1.93 µM,CCN(CC)CCOc1ccc2nc(SCc3ccccc3OC)n(Cc3cccs3)c(=O)c2c1 [O=C1C2=CC(OCCN(CC)CC)=CC=C2N=C (SCC3=C(OC)C=CC=C3)N1CC4=CC=CS4]
2,> 20 µM,O=C(N[C@@H](Cc1ccccc1)C(=O)N1CCCCC1)c1ccccc1 [O=C(N1CCCCC1)[C@@H](NC(C2=CC=CC=C2) =O)CC3=CC=CC=C3]
3,2.06 µM,COc1ccccc1/C(Br)=C(/NC(=O)c1ccc([N+](=O)[O-])cc1)C(=O)N[C@@H](CO)C(C)C [Br/C(C1=CC=CC=C1OC)=C(NC(C2=CC=C([N+]([O-]) =O)C=C2)=O)/C(N[C@@H](CO)C(C)C)=O]

row,Structure (SMILES),IC50
1,O=C(N[C@H](CO)Cc1ccccc1)/C(=C\c1ccccc1)NC(=O)c1ccccc1F [O=C(N[C@H](CO)CC1=CC=CC=C1)/C(NC(C2=C(F) C=CC=C2)=O)=C\C3=CC=CC=C3],> 20 µM

# System: not listed separately
# Test: in vitro validation of HepG2 hepatocytotoxicity (CC50)
# Format: cell-based
# Conditions: human, HepG2 cells, top 10 compounds ranked by SG-ATT prediction, classification threshold 100 μM
# Description: as §1, §2
row,Structure (SMILES),CC50
1,CC(C)C(CO)NC(=O)[C@H](Cc1ccc(OCCN(C)C)cc1)NC(=O)c1ccccc1 (some centres unmarked) [O=C(NC(CO)C(C)C)[C@@H](NC(C1=CC=CC=C1)=O)CC2=CC=C(OCCN(C)C)C=C2],89.1 µM
2,O=C(N/C(C(=O)N1CCCCC1)=C(\Br)c1nccs1)c1ccc(F)cc1 [O=C(N/C(C(N1CCCCC1)=O)=C(Br)/C2=NC=CS2) C(C=C3)=CC=C3F],> 100 µM

# Same assay, conditions: human, top 10 compounds ranked by SG-ATT prediction, classification threshold 100 μM
row,Structure (SMILES),CC50
1,COc1ccccc1/C(Br)=C(/NC(=O)c1ccc([N+](=O)[O-])cc1)C(=O)N[C@@H](CO)CC(C)C [O=C(N[C@H](CC(C)C)CO)/C(NC(C1=CC=C([N+]([O-])=O) C=C1)=O)=C(Br)\C2=CC=CC=C2OC],86.6 µM
2,O=C(N[C@H](CO)Cc1ccccc1)/C(NC(=O)c1ccccc1)=C(/Br)c1ccc(O)cc1 [Br/C(C1=CC=C(O)C=C1)=C(NC(C2=CC=CC=C2)=O)/ C(N[C@H](CO)CC3=CC=CC=C3)=O],> 100 µM
3,O=C(N[C@H](CO)Cc1ccccc1)/C(=C\c1ccccc1)NC(=O)c1ccccc1F [O=C(N[C@H](CO)CC1=CC=CC=C1)/C(NC(C2=C(F) C=CC=C2)=O)=C\C3=CC=CC=C3],> 100 µM
4,O=C(N[C@H](CO)Cc1ccccc1)/C(=C\c1ccc(Br)cc1)NC(=O)c1ccccc1 [O=C(N[C@H](CO)CC1=CC=CC=C1)/C (NC(C2=CC=CC=C2)=O)=C\C3=CC=C(Br)C=C3],72.7 µM
5,N#Cc1ccc(/C(Br)=C(/NC(=O)c2ccccc2)C(=O)N[C@H](CO)Cc2ccccc2)cc1 [Br/C(C1=CC=C(C#N)C=C1)=C(NC(C2=CC=CC=C2)=O)/ C(N[C@@H](CC3=CC=CC=C3)CO)=O],> 100 µM
6,O=C(N[C@H](CO)Cc1ccccc1)/C(=C\c1ccccc1Cl)NC(=O)c1ccccc1 [O=C(N[C@H](CO)CC1=CC=CC=C1)/C(NC(C2=CC=CC=C2)=O) =C\C3=CC=CC=C3Cl],> 100 µM
7,Cc1cccc(/C=C(/NC(=O)c2ccccc2)C(=O)N[C@H](CO)Cc2ccccc2)c1 [O=C(N[C@H](CO)CC1=CC=CC=C1)/C(NC(C2=CC=CC=C2) =O)=C\C3=CC=CC(C)=C3],> 100 µM
8,O=C(N[C@H](CO)Cc1ccccc1)/C(NC(=O)c1ccccc1)=C(/Br)c1ccccc1Br [Br/C(C1=CC=CC=C1Br)=C(NC(C2=CC=CC=C2)=O)/ C(N[C@@H](CC3=CC=CC=C3)CO)=O],> 100 µM
